Reference: US7462227B2 (E.I. du Pont de Nemours and Company, priority 2005, dated 2008)
Entries after “also recorded” stand apart in the source; their conditions may differ.

Tests used:
termites = conditions: Connick et al 2001; cited from earlier work

Protocol for Solubility: In general, solubility of the complex is determined by visual observation, and a complex is considered to be solbilized when a sufficient amount of the complex is dissolved in the solution to permit a desired amount of the complex to be adsorbed on and/or absorbed in the cellulosic material when the treatment thereof occurs.

Structure (SMILES) | toxicity to termites (termites) | solubility in methanol and ethanol (Solubility) | solubility in water (Solubility)
CC(C)Cc1ccc(C(C)C(=O)O)cc1 (centres unmarked) [ibuprofen] | toxic | soluble | relatively insoluble; also recorded: only slightly soluble
CC(C)Cc1ccc(C(C)C(=O)[O-])cc1.[Na+] (centres unmarked) [sodium ibuprofenate] |  | soluble | relatively insoluble
